Laboratory results as given in ChEMBL document CHEMBL4610057, “Benzopyrimidodiazepinone inhibitors of TNK2” (Bioorg Med Chem Lett, 2020).

Experiments:
[1] = Metabolic stability in mouse liver microsomes assessed as parent compound remaining measured after 60 mins; format: ADME, Microsome
in vivo [2] = conditions: CD1, mouse, iv, 3 mg/kg
in vivo [3] = conditions: CD1, mouse, iv, 3 mg/kg; remark: listed apart in the source
in vivo [4] = conditions: CD1, mouse, po, 10 mg/kg
in vivo [5] = conditions: CD1, mouse, po, 10 mg/kg; remark: listed apart in the source
in vitro [6] = conditions: mouse, liver microsomes
in vitro [7] = conditions: mouse, hepatocytes
[8] = mouse, microsomes

Row | remaining at 1 h ([1]; liver microsomes, read-out: Stability) [%] | clearance (in vivo [2]) [mL/min/kg] | half-life (in vivo [3]) [h] | bioavailability (in vivo [4]) [%] | AUC(0-inf) (in vivo [5]) [ng·h/mL] | half-life (in vitro [6]) [h] | half-life (in vitro [7]) [h] | Stability ([1]; microsomes, 1 h) [%] | t1/2 [8] [h] | SMILES
1 | 40 | 25 | 4.4 | 46 | 2000 | 0.367 | > 8.33 |  |  | COc1cc(N2CCN(C)CC2)ccc1Nc1ncc2c(n1)N(C)c1ccccc1C(=O)N2C
2 |  | 150 | 0.7 | 5 | 56 |  | 5.78 | 2 | 0.467 | COc1cc(N2CCN(C)CC2)ccc1Nc1ncc2c(n1)N(C)c1ccccc1C(=O)N2

Row | SMILES | remaining at 1 h ([1]; liver microsomes, read-out: Stability) [%] | clearance (in vivo [2]) [mL/min/kg] | half-life (in vivo [3]) [h] | bioavailability (in vivo [4]) [%] | AUC(0-inf) (in vivo [5]) [ng·h/mL] | half-life (in vitro [6]) [h] | half-life (in vitro [7]) [h] | Stability ([1]; microsomes, 1 h) [%] | t1/2 [8] [h]
3 | COc1cc2c(cc1Nc1ccc(Nc3ncc4c(n3)N(C)c3ccccc3C(=O)N4)cc1)CCN(C)C2 |  | 120 | 10 | 7 | 125 |  |  |  | 
